From patent US20260193249A1, “PREPARATION OF PYRAZOLOPYRIDINE AND TRIAZOLOPYRIDINE DERIVATIVES AS NOVEL DIACYLGLYCERIDE O-ACYLTRANSFERASE 2 INHIBITORS” (Merck Sharp & Dohme LLC, priority 2022, published 2026) come the findings set out here.

In the test the target is T1, human DGAT2 (Homo sapiens, UniProt Q96PD7).
T1 construct: made in house; host or cells: Sf-9 insect cells (baculovirus), membrane fraction
T1 sequence (Q96PD7 1-388): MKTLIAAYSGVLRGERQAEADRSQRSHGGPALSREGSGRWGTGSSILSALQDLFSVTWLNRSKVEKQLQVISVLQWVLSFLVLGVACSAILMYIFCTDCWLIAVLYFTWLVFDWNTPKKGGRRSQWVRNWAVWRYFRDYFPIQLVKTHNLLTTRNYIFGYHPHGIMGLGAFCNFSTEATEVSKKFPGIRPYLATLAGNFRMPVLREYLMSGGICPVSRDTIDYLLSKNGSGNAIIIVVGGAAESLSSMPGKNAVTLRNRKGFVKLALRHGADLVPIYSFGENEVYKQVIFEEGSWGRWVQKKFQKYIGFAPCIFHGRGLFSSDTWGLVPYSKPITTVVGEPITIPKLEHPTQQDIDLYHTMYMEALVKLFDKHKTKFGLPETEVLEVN
The test is described as follows: DGAT2 Enzymatic Activity Assay. The class given is biochemical. Particulars: membrane prep of Sf-9 insect cells expressing hDGAT2; 13C18-triolein product by LC/MS/MS; 25 μM diolein, 5 μM 13C oleoyl-CoA. On the procedure:
Sf-9 insect cells were maintained in Grace's insect cell culture medium with 10% heated-inactivated fetal bovine serum, 1% Pluronic F-68 and 0.14 μg/ml Kanamycine sulfate at 27° C. in a shaker incubator. After infection with untagged baculovirus expressing human DGAT2 (hDGAT2) at multiplicity of infection (MOI) 3 for 48 hours, cells were harvested. Cell pellets were suspended in buffer containing 10 mM Tris-HCl pH 7.5, 1 mM EDTA, 250 mM sucrose and Complete Protease Inhibitor Cocktail (Sigma Aldrich), and sonicated on ice. Cell debris were removed by centrifugation at 2000×g for 15 minutes. Membrane fractions were isolated by ultracentrifugation (100,000×g), resuspended in the same buffer, and frozen (−80° C.) for later use. The protein concentration was determined with the Pierce™ BCA Protein Assay Kit (Thermo Fisher Scientific).
LC/MS/MS analyses were performed using Thermal Fisher's LX4-TSQ Vantage system. This system consists of an Agilent binary high-performance liquid chromatography (HPLC) pump and a TSQ Vantage triple quadrupole MS/MS instrument. For each sample, 2 μL samples from the top organic layer of in-plate liquid-liquid extraction were injected onto a Thermo Betabasic C4 column (2.1 mm×20 mm, 5 μm particle size). The samples were then eluted using the following conditions; mobile phase: Isopropanol:acetonitrile/10 mM ammonium formate=50/35/15 (v/v/v), flow rate: 0.8 mL/min, temperature: 25° C. Data was acquired in positive mode using a heated electrospray ionization (HESI) interface. […] The peak area was integrated by Xcalibur Quan software. The ratio between the ^13C18triolein generated in the reaction and spiked in internal standard ^13C21-triolein was used to generate percentage inhibition and IC50 values. Compound percentage inhibition was calculated by the following formula: Inhibition %=1−[(compound response−low control)/(high control−low control)]×100%.
DGAT2 activity was determined by measuring the amount of enzymatic product ^13C18-triolein (^13C-1,2,3-Tri(cis-9-octadecenoyl)glycerol) using the membrane prep mentioned above. The assay was carried out in ABgene 384-well assay plates in a final volume of 25 μL at rt.
In turn, `CC1(NC(=O)c2cc3cc(Oc4ncc(F)cc4OC4CC4)ccn3n2)CS(=O)(=O)C1` [Example 12, 5-((3-Cyclopropoxy-5-fluoropyridin-2-yl)oxy)-N-(3-methyl-1,1-dioxidothietan-3-yl)pyrazolo[1,5-a]pyridine-2-carboxamide] gave an IC50 of 1800 nM.

Compound `CC1(NC(=O)c2cc3cc(Oc4nccnc4OCC(F)(F)F)ccn3n2)CCS(=O)(=O)CC1` [Example 13, N-(4-Methyl-1,1-dioxidotetrahydro-2H-thiopyran-4-yl)-5-((3-(2,2,2-trifluoroethoxy)pyrazin-2-yl)oxy)pyrazolo[1,5-a]pyridine-2-carboxamide] displayed an IC50 of 17 nM.

`CC1(NC(=O)c2cc3cc(Oc4ncc(Cl)cc4OCC(F)(F)F)ccn3n2)CS(=O)(=O)C1` [Example 15, 5-((5-Chloro-3-(2,2,2-trifluoroethoxy)pyridin-2-yl)oxy)-N-(3-methyl-1,1-dioxidothietan-3-yl)pyrazolo[1,5-a]pyridine-2-carboxamide] returned an IC50 of 2.5 nM.

The compound `CC1(NC(=O)c2cc3cc(Oc4ncc(F)cc4OCC(F)(F)F)ccn3n2)CS(=O)(=O)C1` [Example 17, 5-((5-Fluoro-3-(2,2,2-trifluoroethoxy)pyridin-2-yl)oxy)-N-(3-methyl-1,1-dioxidothietan-3-yl)pyrazolo[1,5-a]pyridine-2-carboxamide] gave an IC50 of 72 nM.

Compound `C[C@@]1(NC(=O)c2cc3cc(Oc4ncc(F)cc4OCC(F)(F)F)ccn3n2)CCS(=O)(=O)C1` [Example 18, (R)-5-((5-Fluoro-3-(2,2,2-trifluoroethoxy)pyridin-2-yl)oxy)-N-(3-methyl-1,1-dioxidotetrahydrothiophen-3-yl)pyrazolo[1,5-a]pyridine-2-carboxamide] registered an IC50 of 33 nM.

Regarding `Cc1c(C(=O)NC2(C)CCS(=O)(=O)CC2)nn2ccc(Oc3ncccc3OCC(F)(F)F)cc12` [Example 19, 3-Methyl-N-(4-methyl-1,1-dioxidotetrahydro-2H-thiopyran-4-yl)-5-((3-(2,2,2-trifluoroethoxy)pyridin-2-yl)oxy)pyrazolo[1,5-a]pyridine-2-carboxamide], the IC50 stood at 7.2 nM.

`Cc1c(C(=O)NC2(C)CS(=O)(=O)C2)nn2ccc(Oc3ncccc3OCC(F)(F)F)cc12` [Example 20, 3-Methyl-N-(3-methyl-1,1-dioxidothietan-3-yl)-5-((3-(2,2,2-trifluoroethoxy)pyridin-2-yl)oxy)pyrazolo[1,5-a]pyridine-2-carboxamide] registered a half-inhibitory concentration (IC50) of 171 nM.

In the case of `CC1(NC(=O)c2nn3ccc(Oc4ncccc4OCC(F)(F)F)cc3c2F)CS(=O)(=O)C1` [Example 22, 3-Fluoro-N-(3-methyl-1,1-dioxidothietan-3-yl)-5-((3-(2,2,2-trifluoroethoxy)pyridin-2-yl)oxy)pyrazolo[1,5-a]pyridine-2-carboxamide], the IC50 was found to be 372 nM.

As for `C[C@@]1(NC(=O)c2nn3ccc(Oc4ncccc4OCC(F)(F)F)cc3c2F)CCS(=O)(=O)C1` [Example 23, (R)-3-Fluoro-N-(3-methyl-1,1-dioxidotetrahydrothiophen-3-yl)-5-((3-(2,2,2-trifluoroethoxy)pyridin-2-yl)oxy)pyrazolo[1,5-a]pyridine-2-carboxamide], the IC50 turned out to be 817 nM.

`CC1(NC(=O)c2nn3ccc(Oc4ncccc4OCC(F)(F)F)cc3c2Cl)CS(=O)(=O)C1` [Example 25, 3-Chloro-N-(3-methyl-1,1-dioxidothietan-3-yl)-5-((3-(2,2,2-trifluoroethoxy)pyridin-2-yl)oxy)pyrazolo[1,5-a]pyridine-2-carboxamide] had an IC50 of 30 nM.

With `C[C@@]1(NC(=O)c2nn3ccc(Oc4ncccc4OCC(F)(F)F)cc3c2Cl)CCS(=O)(=O)C1` [Example 26, (R)-3-Chloro-N-(3-methyl-1,1-dioxidotetrahydrothiophen-3-yl)-5-((3-(2,2,2-trifluoroethoxy)pyridin-2-yl)oxy)pyrazolo[1,5-a]pyridine-2-carboxamide], 388 nM corresponded to half-maximal inhibition (IC50).

A word on the IC50: it is the concentration that inhibits the measured activity by half.
